Literature values in patent US11554190B2, “Nanocarriers for the delivery of active ingredients” (President and Fellows of Harvard College, priority 2017, dated 2023).
Like-named read-outs stand apart in the source and are kept apart here.

Legend:
pathogens on surfaces = settings: 5% w/v, wet approach
[1] = tested on: surface deposited influenza; settings: 90 ppm of vapor phase H2O2, similar times of treatment
bacteria = settings: same amount of time
[2] = tested on: Acinetobacter on surfaces; settings: peak hydrogen peroxide concentration 500-600 ppm
Listeria on lettuce = settings: vaporized from 10% w/v hydrogen peroxide solution

Structure (SMILES): OO [hydrogen peroxide]
- effectiveness against pathogens on surfaces (pathogens on surfaces): ineffective
- log reductions of surface deposited influenza [1]: 5 log
- log reduction (bacteria; aqueous solution at 5% concentration): 2.2 log
- log reduction (bacteria; aqueous solution at 10% concentration): 3.5 log
- log reductions in the concentration of Acinetobacter on surfaces [2]: 4 log
- log reduction in concentration of Listeria on lettuce (Listeria on lettuce): 3 log
